Test results: patent publication US20150306068A1, “COMPOUNDS AND RELATED METHODS FOR TREATMENT OF NEURODEGENERATIVE DISEASES” (priority 2013, published 2015)

Experiments:
wild-type human tau = assay: Western blot of tau levels in HeLa cells transfected with wild-type human tau; type: cell-based; details: treated 24 hours; for phosphorylated (pS199-202) wild type tau level: HeLa cells transfected with wild-type human tau, various doses, pS199-202 antibody; for C-terminal tau level (Tau 46 antibody) / N-terminal tau level (Tau H-150 antibody): human tau transfected HeLa cells, wild type and P301L not distinguished
Procedure: (§1) Compounds effects on tau activity/level were determine by a previously described method (Jinwal et al J. Neurosci. 2009 Sep. 30; 29(39):12079-88). In brief, human tau transfected HeLa Cells were treated with Compounds for 24 hours. Cells were harvested by using MPER reagent containing protease inhibitor and phosphatase inhibitor. Samples were analyzed by western blot. pS199-202 antibody was used to detect phospho tau level. Total tau levels were detected by tau H-150 &/or tau 46 antibodies.
(§2) HeLa cells were transfected with wild-type human tau (A) and mutant P301L human tau (B) (FIG. 1). After 24 hours, cells were treated with either palmadorin M or beauvericin for 24 hours.

mutant P301L human tau = assay: Western blot of tau levels in HeLa cells transfected with mutant P301L human tau; type: cell-based; details: treated 24 hours, various doses, pS199-202 antibody
Procedure: as §1, §2

SMILES | phosphorylated (pS199-202) wild type tau level (wild-type human tau) | C-terminal tau level (Tau 46 antibody) (wild-type human tau) | N-terminal tau level (Tau H-150 antibody) (wild-type human tau) | phosphorylated (pS199-202) mutant P301L tau level (mutant P301L human tau)
CC(C)[C@H]1OC(=O)[C@H](Cc2ccccc2)N(C)C(=O)[C@@H](C(C)C)OC(=O)[C@H](Cc2ccccc2)N(C)C(=O)[C@@H](C(C)C)OC(=O)[C@H](Cc2ccccc2)N(C)C1=O [beauvericin] | potent reduction | moderate change in tau level | increase in tau level | potent reduction
C=C1CC[C@@H]2C(C)(C)CCC[C@]2(C)[C@@H]1CC/C(C)=C/C(=O)OC(CO)CO [palmadorin M] | potent reduction | moderate change in tau level | increase in tau level | potent reduction
